Results: ChEMBL document CHEMBL4376834, “Discovery of 4H-Chromen-4-one Derivatives as a New Class of Selective Rho Kinase (ROCK) Inhibitors, which Showed Potent Activity in ex Vivo Diabetic Retinopathy Models” (J Med Chem, 2019)

Columns and labels:
Ephrin type-A receptor 3 = Ephrin type-A receptor 3 (Homo sapiens, UniProt P29320); assay: Inhibition of recombinant human EphA3 (578 to end residues) using poly(Glu, Tyr) 4:1 as substrate measured after 40 mins in presence of [gamma33ATP] by radiometric scintillation counting analysis
[1] = molecular target: Serine/threonine-protein kinase haspin (Homo sapiens, UniProt Q8TF76); assay: Inhibition of human recombinant Haspin (471 to end residues) using RARTLSFAEPG as substrate after 40 mins by [gamma-33ATP] radiometric assay
Chain of Serine/threonine-protein kinase haspin (Q8TF76 whole entry): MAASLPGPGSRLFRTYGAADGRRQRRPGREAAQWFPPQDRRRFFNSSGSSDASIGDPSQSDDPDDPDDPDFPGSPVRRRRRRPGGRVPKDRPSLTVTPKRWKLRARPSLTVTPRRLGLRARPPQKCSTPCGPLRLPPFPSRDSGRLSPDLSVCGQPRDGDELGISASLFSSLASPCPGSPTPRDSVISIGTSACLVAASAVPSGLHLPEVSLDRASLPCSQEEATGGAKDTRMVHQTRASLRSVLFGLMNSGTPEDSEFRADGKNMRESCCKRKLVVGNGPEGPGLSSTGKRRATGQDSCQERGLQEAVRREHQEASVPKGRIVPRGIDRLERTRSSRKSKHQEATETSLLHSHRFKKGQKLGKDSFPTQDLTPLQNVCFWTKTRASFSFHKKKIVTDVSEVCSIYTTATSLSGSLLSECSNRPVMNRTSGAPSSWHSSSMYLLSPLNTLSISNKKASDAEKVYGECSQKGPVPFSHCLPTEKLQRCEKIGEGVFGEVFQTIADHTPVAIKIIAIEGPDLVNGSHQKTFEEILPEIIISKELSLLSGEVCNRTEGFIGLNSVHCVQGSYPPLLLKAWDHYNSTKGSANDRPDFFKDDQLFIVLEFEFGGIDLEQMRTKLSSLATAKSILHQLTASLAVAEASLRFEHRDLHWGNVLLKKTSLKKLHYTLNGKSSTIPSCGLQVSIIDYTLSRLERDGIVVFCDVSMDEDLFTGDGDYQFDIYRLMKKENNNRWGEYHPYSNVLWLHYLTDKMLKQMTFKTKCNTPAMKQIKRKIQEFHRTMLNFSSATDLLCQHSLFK

[2] = molecular target: Calcium/calmodulin-dependent protein kinase type IV (Homo sapiens, UniProt Q16566); assay: Inhibition of recombinant full length human CaMK4 using calmodulin as substrate incubated for 40 mins in presence of [gamma-33ATP] by radiometric scintillation counting analysis
Casein kinase 2 = Casein kinase 2 (Homo sapiens, UniProt P67870+P68400+P19784+Q8NEV1); assay: Inhibition of recombinant human CK2 in presence of [gamma-33ATP] by radiometric scintillation counting analysis; type: protein assay
CDK3/Cyclin E = CDK3/Cyclin E (Homo sapiens, UniProt Q00526); assay: Inhibition of recombinant full length human CDK3/CyclinE using Histone H1 as substrate incubated for 40 mins in presence of [gamma-33ATP] by radiometric scintillation counting analysis; type: protein-complex assay
Ephrin type-B receptor 3 = Ephrin type-B receptor 3 (Homo sapiens, UniProt P54753); assay: Inhibition of recombinant human EphB3 (599 to 920 residues) using poly(Glu, Tyr) 4:1 as substrate after 40 mins in presence of [gamma-33ATP] by radiometric scintillation counting analysis
[3] = molecular target: Vascular endothelial growth factor receptor 1 (Homo sapiens, UniProt P17948); assay: Inhibition of recombinant human FLT1 (783 to end residues) using KKKSPGEYVNIEF as substrate after 40 mins in presence of [gamma-33ATP] by radiometric scintillation counting analysis
[4] = molecular target: Tyrosine-protein kinase receptor UFO (Homo sapiens, UniProt P30530, Q764R); assay: Inhibition of human recombinant Axl Q764R mutant (473 to end residues) using KKSRGDYMTMQIG as substrate measured after 40 mins in presence of [gamma33P]ATP by radiometric scintillation counting analysis
[5] = molecular target: Insulin-like growth factor 1 receptor (Homo sapiens, UniProt P08069); assay: Inhibition of human recombinant IGF1R (959 to end residues) using KKKSPGEYVNIEF as substrate after 40 mins by [gamma-33ATP] by radiometric scintillation counting analysis
Chain of Insulin-like growth factor 1 receptor (P08069 31-736 limits assumed): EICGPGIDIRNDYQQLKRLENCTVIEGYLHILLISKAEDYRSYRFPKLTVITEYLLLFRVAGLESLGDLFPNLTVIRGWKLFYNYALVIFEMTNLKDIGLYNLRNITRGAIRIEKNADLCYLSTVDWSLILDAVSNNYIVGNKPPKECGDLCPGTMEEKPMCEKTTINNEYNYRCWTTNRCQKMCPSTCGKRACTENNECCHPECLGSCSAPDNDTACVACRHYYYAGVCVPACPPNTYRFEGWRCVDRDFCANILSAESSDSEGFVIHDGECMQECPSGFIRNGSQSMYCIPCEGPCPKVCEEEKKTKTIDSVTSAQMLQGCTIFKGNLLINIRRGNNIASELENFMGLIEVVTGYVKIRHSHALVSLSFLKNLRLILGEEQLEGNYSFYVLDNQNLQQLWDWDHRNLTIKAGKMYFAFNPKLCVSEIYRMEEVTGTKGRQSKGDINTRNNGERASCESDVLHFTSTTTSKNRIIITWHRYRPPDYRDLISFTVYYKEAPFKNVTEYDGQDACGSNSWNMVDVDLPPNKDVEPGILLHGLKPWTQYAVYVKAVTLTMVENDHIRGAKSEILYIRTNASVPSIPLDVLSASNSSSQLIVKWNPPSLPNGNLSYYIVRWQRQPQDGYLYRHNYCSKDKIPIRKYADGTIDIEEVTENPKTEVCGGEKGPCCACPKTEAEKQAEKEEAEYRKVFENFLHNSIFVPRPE
Chain of Insulin-like growth factor 1 receptor (P08069 741-1367 limits assumed): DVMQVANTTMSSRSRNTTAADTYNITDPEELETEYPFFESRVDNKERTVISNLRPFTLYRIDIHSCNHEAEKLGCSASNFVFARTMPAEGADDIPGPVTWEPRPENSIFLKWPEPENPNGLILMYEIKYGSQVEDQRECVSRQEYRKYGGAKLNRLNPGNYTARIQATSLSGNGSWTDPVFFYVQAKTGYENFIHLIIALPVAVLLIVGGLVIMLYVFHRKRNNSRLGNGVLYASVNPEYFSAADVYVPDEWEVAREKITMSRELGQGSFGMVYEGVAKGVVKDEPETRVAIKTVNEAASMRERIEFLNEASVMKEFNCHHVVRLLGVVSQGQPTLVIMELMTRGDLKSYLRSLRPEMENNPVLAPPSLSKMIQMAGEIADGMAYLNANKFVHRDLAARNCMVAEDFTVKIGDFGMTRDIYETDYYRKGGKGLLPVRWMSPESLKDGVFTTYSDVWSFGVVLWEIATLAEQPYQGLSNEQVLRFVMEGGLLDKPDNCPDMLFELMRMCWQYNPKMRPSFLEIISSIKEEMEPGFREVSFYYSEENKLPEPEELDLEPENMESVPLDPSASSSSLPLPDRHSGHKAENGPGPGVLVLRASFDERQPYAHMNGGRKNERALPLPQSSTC

[6] = molecular target: Eukaryotic elongation factor 2 kinase (Homo sapiens, UniProt O00418, H23R); assay: Inhibition of recombinant human eEF2K H23R mutant (2 to end residues) using RKKFGESEKTKTK as substrate after 40 mins in presence of [gamma-33ATP] by radiometric scintillation counting analysis
[7] = molecular target: PAS domain-containing serine/threonine-protein kinase (Homo sapiens, UniProt Q96RG2); assay: Inhibition of recombinant human PASK (995 to end residues) using KKLNRTLSFAEPG as substrate measured after 40 mins in presence of [gamma33P]ATP by radiometric scintillation counting analysis
Chain of PAS domain-containing serine/threonine-protein kinase (Q96RG2 whole entry, the tested form may be a part): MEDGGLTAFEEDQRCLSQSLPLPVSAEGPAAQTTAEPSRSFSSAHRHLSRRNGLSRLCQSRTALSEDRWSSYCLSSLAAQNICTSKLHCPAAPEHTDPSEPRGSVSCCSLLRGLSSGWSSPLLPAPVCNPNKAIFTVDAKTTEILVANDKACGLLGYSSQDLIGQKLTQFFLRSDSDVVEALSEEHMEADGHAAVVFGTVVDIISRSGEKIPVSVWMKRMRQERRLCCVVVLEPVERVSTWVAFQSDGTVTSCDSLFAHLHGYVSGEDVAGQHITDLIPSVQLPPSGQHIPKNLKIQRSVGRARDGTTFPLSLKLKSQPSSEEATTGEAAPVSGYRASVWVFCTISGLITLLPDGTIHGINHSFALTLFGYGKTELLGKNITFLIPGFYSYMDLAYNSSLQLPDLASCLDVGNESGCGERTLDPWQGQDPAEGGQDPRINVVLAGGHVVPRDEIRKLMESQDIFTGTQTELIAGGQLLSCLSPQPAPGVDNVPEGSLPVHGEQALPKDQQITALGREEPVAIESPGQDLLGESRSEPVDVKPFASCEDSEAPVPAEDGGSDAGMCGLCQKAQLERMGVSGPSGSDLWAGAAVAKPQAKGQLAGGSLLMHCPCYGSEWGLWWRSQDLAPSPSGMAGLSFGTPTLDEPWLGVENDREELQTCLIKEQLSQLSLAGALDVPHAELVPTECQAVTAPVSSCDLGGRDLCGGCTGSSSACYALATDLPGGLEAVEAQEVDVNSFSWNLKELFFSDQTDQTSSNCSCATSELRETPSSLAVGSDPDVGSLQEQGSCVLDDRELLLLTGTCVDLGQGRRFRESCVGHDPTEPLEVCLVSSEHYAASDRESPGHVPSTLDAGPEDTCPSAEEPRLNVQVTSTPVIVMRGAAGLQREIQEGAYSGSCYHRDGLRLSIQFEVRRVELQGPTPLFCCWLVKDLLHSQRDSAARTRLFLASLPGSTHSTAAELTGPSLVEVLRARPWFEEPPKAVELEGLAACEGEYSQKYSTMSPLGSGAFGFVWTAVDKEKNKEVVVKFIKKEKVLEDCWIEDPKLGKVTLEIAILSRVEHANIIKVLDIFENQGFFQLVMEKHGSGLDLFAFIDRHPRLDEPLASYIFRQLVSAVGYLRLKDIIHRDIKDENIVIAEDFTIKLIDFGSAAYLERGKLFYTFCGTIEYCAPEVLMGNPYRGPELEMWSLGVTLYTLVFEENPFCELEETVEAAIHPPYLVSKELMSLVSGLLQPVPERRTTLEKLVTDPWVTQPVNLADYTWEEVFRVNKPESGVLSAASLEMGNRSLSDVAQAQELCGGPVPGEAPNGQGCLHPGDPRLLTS

[8] = molecular target: Calcium/calmodulin-dependent protein kinase type II subunit gamma (Homo sapiens, UniProt Q13555); assay: Inhibition of recombinant human CaMK2gamma (1 to 330 residues) using calmodulin as substrate incubated for 40 mins in presence of [gamma-33ATP] by radiometric scintillation counting analysis
Chain of Calcium/calmodulin-dependent protein kinase type II subunit gamma (Q13555 whole entry, the tested form may be a part): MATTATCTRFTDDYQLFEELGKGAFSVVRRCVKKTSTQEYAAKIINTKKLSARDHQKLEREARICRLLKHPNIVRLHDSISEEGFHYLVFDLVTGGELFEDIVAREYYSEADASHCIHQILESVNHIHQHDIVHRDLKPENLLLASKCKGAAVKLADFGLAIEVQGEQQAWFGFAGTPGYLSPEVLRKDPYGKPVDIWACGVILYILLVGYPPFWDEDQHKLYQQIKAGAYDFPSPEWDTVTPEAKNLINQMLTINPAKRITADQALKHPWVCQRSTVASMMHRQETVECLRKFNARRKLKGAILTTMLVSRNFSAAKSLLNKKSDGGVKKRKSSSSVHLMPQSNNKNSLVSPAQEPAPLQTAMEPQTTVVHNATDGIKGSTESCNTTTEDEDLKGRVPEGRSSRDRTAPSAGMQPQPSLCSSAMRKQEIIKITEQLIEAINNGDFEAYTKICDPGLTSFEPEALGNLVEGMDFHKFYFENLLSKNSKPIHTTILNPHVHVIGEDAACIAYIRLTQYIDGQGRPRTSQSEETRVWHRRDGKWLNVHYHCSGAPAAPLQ

[9] = molecular target: Hepatocyte growth factor receptor (Homo sapiens, UniProt P08581, Y1230H); assay: Inhibition of recombinant human MET A1209G/V1290L/Y1248H triple mutant (974 to end residues) using KKKGQEEEYVFIE as substrate incubated for 40 mins in presence of [gamma-33ATP by radiometric scintillation counting analysis
[10] = molecular target: Casein kinase II subunit alpha (Homo sapiens, UniProt P68400); assay: Inhibition of recombinant full length human CK2alpha1 using RRRDDDSDDD as substrate incubated 40 mins in presence of [gamma-33ATP] by radiometric scintillation counting analysis
[11] = molecular target: Insulin receptor-related protein (Homo sapiens, UniProt P14616); assay: Inhibition of human recombinant IRR (943 to 1266 residues) using myelin basic protein as substrate after 40 mins by [gamma-33ATP] by radiometric scintillation counting analysis
[12] = molecular target: Macrophage colony-stimulating factor 1 receptor (Homo sapiens, UniProt P07333, Y969C); assay: Inhibition of recombinant human FMS Y969C mutant (538 to end residues) using EEEEYEEEEEEYY as substrate after 40 mins in presence of [gamma-33ATP] by radiometric scintillation counting analysis
FKBP12A/mTOR = FKBP12A/mTOR (Homo sapiens, UniProt P42345+P62942); assay: Inhibition of recombinant full length human mTOR/FKBP12 measured after 40 mins in presence of [gamma33P]ATP by radiometric scintillation counting analysis; type: protein-complex assay
Chain of FKBP12A/mTOR (P62942 2-108 limits assumed, other chains not shown): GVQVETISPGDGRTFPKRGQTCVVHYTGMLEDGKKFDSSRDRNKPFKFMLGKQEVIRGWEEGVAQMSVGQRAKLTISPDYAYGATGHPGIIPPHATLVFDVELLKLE

[13] = molecular target: Protein kinase C zeta type (Homo sapiens, UniProt Q05513); assay: Inhibition of recombinant human PKCzeta (2 to end residues) using ERMRPRKRQGSVRR as substrate incubated for 40 mins in presence of [gamma33P]ATP by radiometric scintillation counting analysis
[14] = molecular target: Tyrosine-protein kinase JAK2 (Homo sapiens, UniProt O60674); assay: Inhibition of human recombinant JAK2 (808 to end residues) using KTFCGTPEYLAPE as substrate after 40 mins by [gamma-33ATP] by radiometric scintillation counting analysis
[15] = molecular target: Mitogen-activated protein kinase kinase kinase 3 (Homo sapiens, UniProt Q99759); assay: Inhibition of recombinant full length human MEKK3 using MBP as substrate incubated for 120 mins in presence of [gamma-33ATP by radiometric scintillation counting analysis
[16] = molecular target: Inhibitor of nuclear factor kappa-B kinase subunit epsilon (Homo sapiens, UniProt Q14164); assay: Inhibition of recombinant full length human IKKepsilon using casein as substrate after 40 mins by [gamma-33ATP] by radiometric scintillation counting analysis
[17] = molecular target: Serine/threonine-protein kinase VRK2 (Homo sapiens, UniProt Q86Y07); assay: Inhibition of recombinant human VRK2 (1 to 336 residues) using casein as substrate incubated for 40 mins in presence of [gamma33P]ATP by radiometric scintillation counting analysis
Rhodopsin kinase GRK1 = Rhodopsin kinase GRK1 (Homo sapiens, UniProt Q15835); assay: Inhibition of recombinant full length human GRK1 using KKKKERLLDDRHD as substrate after 40 mins in presence of [gamma-33ATP] by radiometric scintillation counting analysis
Chain of Rhodopsin kinase GRK1 (Q15835 whole entry): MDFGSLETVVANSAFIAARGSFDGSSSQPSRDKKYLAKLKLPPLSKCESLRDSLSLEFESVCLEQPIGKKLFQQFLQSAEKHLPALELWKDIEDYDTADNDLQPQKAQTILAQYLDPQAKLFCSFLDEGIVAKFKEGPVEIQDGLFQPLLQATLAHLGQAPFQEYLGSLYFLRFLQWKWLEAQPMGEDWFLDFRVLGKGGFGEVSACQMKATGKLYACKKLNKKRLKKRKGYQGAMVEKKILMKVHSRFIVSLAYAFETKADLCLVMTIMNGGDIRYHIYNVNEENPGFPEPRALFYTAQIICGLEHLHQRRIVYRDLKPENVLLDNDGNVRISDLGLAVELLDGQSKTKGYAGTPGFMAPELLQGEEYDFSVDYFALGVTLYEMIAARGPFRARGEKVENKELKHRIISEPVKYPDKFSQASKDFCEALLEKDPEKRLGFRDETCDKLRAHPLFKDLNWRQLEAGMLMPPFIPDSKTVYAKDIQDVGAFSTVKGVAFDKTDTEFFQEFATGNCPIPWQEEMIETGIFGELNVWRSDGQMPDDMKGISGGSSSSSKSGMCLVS

[18] = molecular target: Protein kinase C beta type (Homo sapiens, UniProt P05771); assay: Inhibition of recombinant human PKCbeta1 (2 to end residues) using histone H1 as substrate incubated for 40 mins in presence of [gamma33P]ATP by radiometric scintillation counting analysis
[19] = molecular target: Dual specificity mitogen-activated protein kinase kinase 7 (Homo sapiens, UniProt O14733); assay: Inhibition of recombinant human MKK7 (2 to end residues) using inactive JNK1a1 as substrate incubated for 40 mins by radiometric scintillation counting analysis
[20] = molecular target: Serine/threonine-protein kinase mTOR (Homo sapiens, UniProt P42345); assay: Inhibition of recombinant full length human mTOR measured after 40 mins in presence of [gamma33P]ATP by radiometric scintillation counting analysis

Measured: IC50

CN(C)c1ccc(C(=O)Nc2cccc(NC(=O)COc3ccc4c(=O)ccoc4c3)c2)cc1
> 10 µM: all assays above
